Data: patent publication US10106853B2, “CUL4B as predictive biomarker for cancer treatment” (CORNELL UNIVERSITY, priority 2012, dated 2018)

How the values were obtained:
[1] = test system: BT474 cells; test: XTT assay for cytotoxic response to camptothecin, BT474; assay type: cell-based, Human
Protocol: FIG. 2. CUL4B interacted with Top1 and induced Top1 degradation in the presence of CPT. A) Knockdown of CUL4B impaired CPT-induced Top1 degradation. BT474 cells were infected with lentiviral shCUL4B, shCUL4A or control non-targeting shRNA, and selected for stable CUL4B^k/d or CUL4A^k/d cells upon treatment with puromycin. Following treatment with CPT (50 μM) for 1 hour, cells were replenished with CPT-free fresh medium and incubated at 37° C. for 30 minutes. Top1 degradation was assessed by immunoblotting with an anti-Top1 antibody. Levels of α-tubulin were measured as a loading control. B) Association of CUL4B with Top1 following CPT treatment. […] Top1 degradation was assessed by immunoblotting with the anti-Top1 antibody. Levels of α-tubulin were measured as a loading control. […] Statistical significance in cellular response to CPT between control BT474 cells and CUL4A^k/d or CUL4B^k/d cells were assessed by a two-tailed unpaired student t-test (***: p<0.001). […] Statistical significance in cellular response to camptothecin between control cells and CUL4A^k/d or CUL4B^k/d BT474 cells are assessed by student's t-test.
Synchronized cells were seeded into 96-well microplates. […] The optical density was measured with a microplate reader. […] Data were expressed as the mean±S.E. Difference in the survival ratios between the two cell lines at each concentration point was assessed by the student's T test. […]

[2] = test system: BT474 cells; test: XTT Cell Proliferation Assay, growth rate of BT474 cells in vitro; assay type: cell-based, Human; conditions: knockdown cells vs control, no drug
Protocol: FIG. 5. CUL4B inactivation sensitized BT474 xenograft tumors to topotecan. Stable TGL-BT474 cells (BT474 cells stably expressing GFP-luciferase reporter) were established by retroviral transduction and FACS sorting. The resulting TGL-BT474 cells were infected with recombinant lentiviruses expressing non-targeting shCtrl, shCUL4A or shCUL4B, followed by selection of infected cells with 4 μg/ml puromycine for one week. A) Knockdown of endogenous CUL4A and 4B were verified by immunoblotting. […] Statistical significance in tumor burden between control and CUL4A^k/d or CUL4B^k/d xenograph are assessed by a two-tailed unpaired student t-test (***: p<0.001). […] The same number of control, CUL4A^k/d and CUL4B^k/d BT474 cells were seeded to 96-well plates and cell proliferation was measured using the XTT Cell Proliferation Assay Kit. […] Statistical significance in cellular rate between control cells and CUL4A^k/d or CUL4B^k/d cells are assessed by student's t-test. […] 1×10^7 of control, CUL4A^k/d or CUL4B^k/d TGL-BT474 cells were injected subcutaneously in the right flank of each mouse of athymic Nu/J nude mice, and tumor burden was measured by bioluminescent imaging (E). On the 22nd day, tumors were collected, and the weight of exercised tumors was measured after mice were sacrificed (F).

Compound	Survival rate of CPT-treated cells ([1]; BT474 cells with knockdown of CUL4A)	Cytotoxic killing by CPT (cell survival) ([1]; BT474 cells with knockdown of CUL4B, CPT three days)	Growth rate of cultured BT474 cells in vitro [2]
CC[C@@]1(O)C(=O)OCc2c1cc1n(c2=O)Cc2cc3ccccc3nc2-1 [CPT, (S)-4-ethyl-4-hydroxy-1H-pyrano[3′,4′:6,7]indolizino[1,2-b]quinoline-3,14-(4H, 12H)-dione]	no effect	sensitized	–
shCUL4B: lentiviral shRNA CUL4B sequence purchased from Sigma Aldrich, reduces CUL4B expression (CCGGGCAGAATTTAAAGAGGGTAAACTCGAGTTTACCCTCTTTAAATTCTGCTTTTT)	–	–	no effect
